Structures are written as SMILES.

Here are results for four compounds from EP4707280A1, “1,4-CINEOLE DERIVATIVE AND INTERMEDIATE THEREOF, HERBICIDE CONTAINING SAID DERIVATIVE AS ACTIVE INGREDIENT, METHOD FOR USING HERBICIDE, AND METHOD FOR PREPARING AGROCHEMICAL COMPOSITION” (HOKKO CHEMICAL INDUSTRY CO., LTD., priority 2023, dated 2024).

This assay relates to Lindernia pyxidaria. The assay can be described thus: Test Example 6: herbicidal effect test by application during growth period of paddy rice (low dose). It counts as in vivo. The conditions noted are these: 7.5 g per 10 ares, applied seven days after sowing, flooded pots, 14 days after application, read-out: weed inhibition rate. In short, it runs like this: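 Low-dose water application, 7.5 g a.i. per 10 ares, given by dropper into flooded pots (about 3 cm depth) 7 days after sowing of 30 weed seeds each at 0–1 cm. Evaluation of inhibition (%) took place 14 days later, duplicate per rate.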
As to `CC(C)[C@]12C[C@@H](OCc3ccccc3F)[C@](C)(CC1OCC1CC1)O2` (mixture of isomers) [1-921, (1S,2R,4R,SR)-5-(cyclopropylmethoxy)-2-[(2-fluorophenyl)methoxy]-1-methyl-4-isopropyl-7-oxabicyclo[2.2.1]heptane], the inhibition (as a rule, the drop in the measured response relative to a control, in per cent) at 75 g/ha was no less than 80%.

On to `C=CCO[C@@H]1C[C@]2(C)O[C@@]1(C(C)C)C[C@H]2OCc1ccccc1F` [1-930, (1S,2R,4R,5R)-2-[(2-fluorophenyl)methoxy]-1-methyl-4-isopropyl-5-prop-2-enoxy-7-oxabicyclo[2.2.1]heptane], for which the inhibition at 75 g/ha is no less than 80%.

For the compound `C#CCO[C@@H]1C[C@]2(C)O[C@@]1(C(C)C)C[C@H]2OCc1ccccc1F` [1-931, (1S,2R,4R,5R)-2-[(2-fluorophenyl)methoxy]-1-methyl-4-isopropyl-5-prop-2-ynoxy-7-oxabicyclo[2.2.1]heptane], the inhibition at 75 g/ha is no less than 80%.

Regarding `CC(C)[C@]12C[C@@H](OCc3c(F)cccc3F)[C@](C)(CC1=O)O2` [2-20, (1R,4S,5R)-5-((2,6-difluorobenzyl)oxy)-1-isopropyl-4-methyl-7-oxabicyclo[2.2.1]heptan-2-one], the inhibition at 75 g/ha is no less than 80%.
